The test system of experiment [1] is S. mansoni schistosomulae. As to the kind of experiment: Phenotypic primary screen assay on schistosomulae (phenotype; viability by methylene blue dye exclusion). It is filed as cell-based, Schistosoma mansoni. The following applies: three-day-old schistosomulae, 10 μM, 24 h; estimated 5 days post compound exposure. In a few lines: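 Parasites lacking contraction/relaxation cycles and showing dark internal granulations counted as dead. Movement and body shape were compared with DMSO-treated controls under a stereo microscope at 24 h and at five days of exposure. Larvae came from infected snails shed under light for 2 h at 32 °C.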

For experiment [2], the system named is S. mansoni schistosomulae. As to the kind of experiment: Motility assay on schistosomulae (pixel displacement, relative to DMSO control). The following applies: for activity at 1 µM: Schistosoma mansoni, read-out: Fractional motility. Type of experiment: cell-based, Schistosoma mansoni. Summed up:
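Mechanically transformed S. mansoni schistosomulae (200/well) in Opti-MEM with 5% dialyzed FBS were exposed to compounds at 1 and 10 μM for 24 h at 37 °C, 5% CO2. Motility filmed at 10 frames/s for 1 min and quantified by pixel displacement relative to DMSO-treated controls.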

A further experiment concerns S. mansoni adult worms. Kind of experiment: Motility assay on adult parasites (pixel displacement, relative to DMSO control). The settings on record: secondary screen, 10 μM. Type of experiment: cell-based, Schistosoma mansoni. Summed up:
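Unpaired adult worms from mice 6 weeks post-infection kept in OPTI-MEM with 5% dialyzed FBS and exposed to compounds at 1 and 10 μM for 24 h. Motility filmed 1 min at 10 frames/s, quantified by pixel displacement versus DMSO-treated worms; recovery followed up to five days after washout.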

Experiment [3] relates to S. mansoni schistosomulae. As to the kind of experiment: Phenotypic primary screen assay on schistosomulae (phenotype; viability by methylene blue dye exclusion). It is filed as cell-based. The following applies: Schistosoma mansoni.
The mark [4] stands for this setting: 120 h, schistosomulae, secondary screen, 24h exposure, read at D5, 1 µM.
Where [5] appears, read: schistosomulae, secondary screen, 24h exposure, read at D1, 1 µM.
Where [6] appears, read: schistosomulae, secondary screen, 24h exposure, read at D1, 10 µM.
[7] abbreviates: schistosomulae, secondary screen, 24h exposure, read at D5, 10 µM.
[8] abbreviates: three-day-old schistosomulae, 10 μM, 24 h, calculated 5 days post compound exposure, read-out: Viability (%).

Like-named read-outs stand apart in the source and are kept apart here.

Data on 13 molecules can be found in article PMC7284125, “Identification of annotated bioactive molecules that impair motility of the blood fluke Schistosoma mansoni” (International Journal for Parasitology: Drugs and Drug …, 2020).

The term viability denotes the share of living cells, or the viability signal relative to a control.

`CN1CCN(C2=Nc3cc(Cl)ccc3Nc3ccccc32)CC1` [Clozapine]: the Phenotype result in experiment [1] is reported as “elongated”. Further, the activity at 1 µM in experiment [2] (setting [4]) worked out at 121%; in experiment [2] (setting [5]), 625%. Besides, the Fractional motility in experiment [2] (setting [6]) is 23.43; in experiment [2] (setting [7]) it was -0.13; in the experiment on S. mansoni adult worms (D1, Female adult worms) it was 2.39; in the experiment on S. mansoni adult worms (D1, Male adult worms) it was 2.19; in the experiment with S. mansoni adult worms (D5, Female adult worms), -0.70; in the experiment with S. mansoni adult worms (D5, Male adult worms), 0.45. In experiment [3] (setting [8]), the viability at 10 µM was 98%.

On to `C=C1C(=O)O[C@@H]2/C=C(\C)CC/C=C(\C)CC[C@@H]12` [Costunolide], for which the Phenotype entry in experiment [1] was “big, granulated”. Further, the activity at 1 µM in experiment [2] (setting [4]) is 16%; in experiment [2] (setting [5]), -57%. Besides, the Fractional motility is given as -0.77 in experiment [2] (schistosomulae, 1h exposure, read at D1, 10 µM); -0.29 in experiment [2] (schistosomulae, 1h exposure, read at D5, 10 µM); 0.34 in experiment [2] (schistosomulae, 3h exposure, read at D1, 10 µM); 1.03 in experiment [2] (schistosomulae, 3h exposure, read at D5, 10 µM); 2.25 in experiment [2] (schistosomulae, 6h exposure, read at D1, 10 µM); -0.56 in experiment [2] (schistosomulae, 6h exposure, read at D5, 10 µM). In addition, the Fractional motility in experiment [2] (setting [6]) was -0.92; in experiment [2] (setting [7]), -0.94; with S. mansoni adult worms (D1, Female adult worms) it was -0.10; with S. mansoni adult worms (D5, Female adult worms) it was -0.83. Also, the “motility in extended assay with reduced incubation times, in words” value in experiment [2] (three-day old schistosomulae, incubation 1 h, 3 h, 6 h) is on record as “did not exhibit a significant change before the 24 hr incubation cut-off”. Further, in experiment [3] (setting [8]), the viability at 10 µM is 1.5%.

With `CN(C)[C@@H](CCOc1cccc2ccccc12)c1ccccc1` [Dapoxetine], the Phenotype result in experiment [1] is on record as “elongated, granulated”. The activity at 1 µM in experiment [2] (Selleckchem customized library secondary screen, 24h, D1, 1 µM) was 253%. The Fractional motility in experiment [2] (Selleckchem customized library secondary screen, 24h, D1, 10 µM) is reported as 69.58; in experiment [2] (Selleckchem customized library secondary screen, 24h, D5, 10 µM) it was 15.51; with S. mansoni adult worms (D1, Female adult worms) it was 2.14; in the experiment on S. mansoni adult worms (D1, Male adult worms), 2.05; with S. mansoni adult worms (D5, Female adult worms) it was -0.24; with S. mansoni adult worms (D5, Male adult worms), -0.50. For the same molecule, the viability at 10 µM in experiment [3] (setting [8]) is 97.5%.

In the case of `NC(=O)C(c1ccccc1)(c1ccccc1)[C@@H]1CCN(CCc2ccc3c(c2)CCO3)C1` [Darifenacin], the Phenotype result in experiment [1] was “elongated, granulated”. Moreover, the activity at 1 µM in experiment [2] (setting [4]) is -59%; in experiment [2] (setting [5]), -60%. Moreover, the Fractional motility in experiment [2] (setting [6]) is -0.70; in experiment [2] (setting [7]), 0.35; in the experiment with S. mansoni adult worms (D1, Female adult worms), 1.90; with S. mansoni adult worms (D1, Male adult worms) it was 3.54; in the experiment on S. mansoni adult worms (D5, Female adult worms), -0.69; with S. mansoni adult worms (D5, Male adult worms) it was -0.23. For the same molecule, the viability at 10 µM in experiment [3] is 98.5%.

As to `CN(C)CCC[C@@]1(c2ccc(F)cc2)OCc2cc(C#N)ccc21` [Escitalopram], the Phenotype entry in experiment [1] is “abnormal morphology”. Further, the activity at 1 µM in experiment [2] (setting [4]) was 16%; in experiment [2] (setting [5]), 361%. Also, the Fractional motility in experiment [2] (setting [6]) was found to be 5.42; in experiment [2] (setting [7]) it was 0.71; with S. mansoni adult worms (D1, Female adult worms) it was 2.54; with S. mansoni adult worms (D1, Male adult worms), 6.67; in the experiment with S. mansoni adult worms (D5, Female adult worms), 0.95; with S. mansoni adult worms (D5, Male adult worms), 0.26. The viability at 10 µM in experiment [3] (setting [8]) is 98%.

Take `C[C@]12CC[C@@H]3c4ccc(O)cc4CC[C@H]3[C@@H]1CC[C@@H]2O` [Estradiol]: in experiment [1], the Phenotype entry is recorded as “blebbing”. The activity at 1 µM is 23% in experiment [2] (setting [4]) and 87% in experiment [2] (setting [5]). The Fractional motility in experiment [2] (setting [6]) is 2.93; in experiment [2] (setting [7]), 0.31; with S. mansoni adult worms (D1, Female adult worms) it was -0.35; with S. mansoni adult worms (D1, Male adult worms), 0.83; with S. mansoni adult worms (D5, Female adult worms) it was 0.13; in the experiment on S. mansoni adult worms (D5, Male adult worms), 0.26. In experiment [3] (setting [8]), the viability at 10 µM is 98%.

With `CCCCCCCCc1ccc(CCC(N)(CO)CO)cc1` [Fingolimod], the Phenotype entry in experiment [1] was “dark, granulated”. For the same molecule, the activity at 1 µM in experiment [2] (setting [4]) worked out at 151%; in experiment [2] (setting [5]), 180%. The Fractional motility in experiment [2] (setting [6]) is 2.04; in experiment [2] (setting [7]), -1.00; with S. mansoni adult worms (D1, Female adult worms), -0.39; with S. mansoni adult worms (D1, Male adult worms), 0.65; in the experiment on S. mansoni adult worms (D5, Female adult worms), -0.09; in the experiment on S. mansoni adult worms (D5, Male adult worms) it was -0.15. The viability at 10 µM in experiment [3] (setting [8]) is 0%.

For the molecule `CNCCC(Oc1ccc(C(F)(F)F)cc1)c1ccccc1` (centres unmarked) [Fluoxetine], the Phenotype entry in experiment [1] was “elongated”. The activity at 1 µM in experiment [2] (setting [4]) turned out to be 105%. For the same molecule, the Fractional motility was 15.72 in experiment [2] (setting [6]); 0.95 in experiment [2] (setting [7]); 1.96 with S. mansoni adult worms (D1, Female adult worms); 2.26 in the experiment on S. mansoni adult worms (D1, Male adult worms); 0.45 with S. mansoni adult worms (D5, Female adult worms); -0.0243 in the experiment with S. mansoni adult worms (D5, Male adult worms). Further, the viability at 10 µM in experiment [3] (setting [8]) is 98.5%.

For the molecule `COCCCC/C(=N\OCCN)c1ccc(C(F)(F)F)cc1` [Fluvoxamine], in experiment [1], the Phenotype result is listed as “elongated”. For the same molecule, the activity at 1 µM in experiment [2] (setting [4]) came out at 99%; in experiment [2] (setting [5]) it was 812%. For the same molecule, the Fractional motility amounted to 10.49 in experiment [2] (setting [6]); 3.18 in experiment [2] (setting [7]); 1.69 with S. mansoni adult worms (D1, Female adult worms); 4.13 with S. mansoni adult worms (D1, Male adult worms); 0.13 in the experiment on S. mansoni adult worms (D5, Female adult worms); 0.22 in the experiment on S. mansoni adult worms (D5, Male adult worms). For the same molecule, the viability at 10 µM in experiment [3] (setting [8]) is 97%.

In the case of `C#C[C@]1(O)C=C[C@H]2[C@@H]3CCC4=CC(=O)CC[C@@H]4[C@H]3CC[C@@]21CC` [Gestodene], the Phenotype result in experiment [1] is “granulated”. Further, the figures for the activity at 1 µM in experiment [2] (setting [4]) and in experiment [2] (setting [5]) were -29% and 51%, respectively. Further, the Fractional motility in experiment [2] (setting [6]) was 4.27; in experiment [2] (setting [7]) it was -0.32; with S. mansoni adult worms (D1, Female adult worms), 1.24; with S. mansoni adult worms (D1, Male adult worms), 3.68. In addition, the viability at 10 µM in experiment [3] (setting [8]) is 98%.

`C=CC(=O)N1CCC[C@@H](n2nc(-c3ccc(Oc4ccccc4)cc3)c3c(N)ncnc32)C1` [Ibrutinib]: the Phenotype entry in experiment [1] is reported as “dark, granulated”. For the same molecule, the results for the activity at 1 µM in experiment [2] (setting [4]) and in experiment [2] (setting [5]) were 244% and -18%, respectively. Moreover, the Fractional motility in experiment [2] (setting [6]) was 0.000588; in experiment [2] (setting [7]), -0.29; in the experiment on S. mansoni adult worms (D1, Female adult worms), 0.33; in the experiment on S. mansoni adult worms (D1, Male adult worms) it was 2.36; with S. mansoni adult worms (D5, Female adult worms), 0.36; with S. mansoni adult worms (D5, Male adult worms), 0.94. Further, the viability at 10 µM in experiment [3] (setting [8]) was 84.5%.

Turning to `CC(C(O)c1ccc(O)cc1)N1CCC(Cc2ccccc2)CC1` (centres unmarked) [Ifenprodil], the Phenotype result in experiment [1] is “abnormal morphology, granulated”. Further, the activity at 1 µM amounted to 11% in experiment [2] (setting [4]) and 81% in experiment [2] (setting [5]). For the same molecule, the Fractional motility in experiment [2] (setting [6]) is 0.47; in experiment [2] (setting [7]) it was -0.10; with S. mansoni adult worms (D1, Female adult worms) it was 1.05; in the experiment with S. mansoni adult worms (D1, Male adult worms) it was 1.73; in the experiment with S. mansoni adult worms (D5, Female adult worms), -0.36; in the experiment with S. mansoni adult worms (D5, Male adult worms), -0.44. Moreover, the viability at 10 µM in experiment [3] (setting [8]) was 98.5%.

For `Cc1ccc(C(=O)N(CCCN)[C@@H](c2nc3cc(Cl)ccc3c(=O)n2Cc2ccccc2)C(C)C)cc1` [Ispinesib], the Phenotype result in experiment [1] was “big, granulated”. The activity at 1 µM in experiment [2] (setting [4]) is 125%; in experiment [2] (setting [5]), 24%. The Fractional motility in experiment [2] (setting [6]) is reported as -0.92; in experiment [2] (setting [7]), -0.39; in the experiment on S. mansoni adult worms (D1, Female adult worms) it was 3.19; in the experiment on S. mansoni adult worms (D1, Male adult worms), 2.22; in the experiment with S. mansoni adult worms (D5, Female adult worms), -0.34; in the experiment on S. mansoni adult worms (D5, Male adult worms), -0.33. In experiment [3] (setting [8]), the viability at 10 µM was 96%.
